# From patent US7645745B2, “Antiviral nucleosides” (priority 2006, dated 2010)
# Like-named read-outs stand apart in the source and are kept apart here.
# Legend:
# [1] = Caco2 protocol: transport through Caco-2 cell monolayers (Papp); format: in vitro ADME; details: human
# Experimental: (§1) To further evaluate potential behavior in human subjects, the transport through Caco-2 cells was evaluated for the putative prodrugs.
# (§2) Powders of Krebs-Henseleit buffer, calcium chloride dihydrate, and sodium bicarbonate were purchased from Sigma (St. Louis, Mo.). Caco-2 cells (Passage˜100) were obtained from Roche Basel. Dulbecco's Modified Eagle's Medium (DMEM)/high medium, 4-(2-hydroxyethyl)-1-piperazineethane-sulfonic acid (HEPES), and bovine serum were obtained from JRH Bioscience (Lenexa, Kans.). MEM nonessential amino acids, L-glutamine, penicillin, and streptomycin were obtained from GIBCO Labs, Life Tech. LLC (Grand Island, N.Y.). Snapwell cell culture inserts (6.5 mm diameter, 1.12 cm^2, 0.4 μm pore size) were obtained from Costar (Cambridge, Mass.).
# (§3) Culture media consisted of DMEM/high medium supplemented with 5% bovine serum, 25 mM HEPES, 1% MEM non-essential amino acids, 1% L-glutamine, 100 U/mL penicillin, and 100 μg/mL streptomycin. Cultures were passaged every week at a split ratio of 1-3. For the permeability studies, Caco-2 cells at passage number 110-120 were plated at a density of 400,000 cells/cm^2 on Transwell polycarbonate filters in Snapwell inserts and allowed to culture for 7 days prior to use.
# (§4) Krebs-Henseleit bicarbonate buffer containing 10 mM glucose and 2.5 mM CaCl2 adjusted to pH 6.5 and 7.4 were prepared per packet instructions. Powder salts were quantitatively dissolved in about 90% of required volume with Millipore water. Calcium chloride dihydrate and sodium bicarbonate were added before pH adjustment with 1N HCl or 1N NaOH. Additional Millipore water was added to bring the solution to final volume. The solution was sterilized by filtration using membrane with a porosity of 0.22 microns and stored in the refrigerator ([…]) until use.
# (§5) Snapwells inserts, containing caco-2 monolayers were rinsed in 37° C. equilibrated Krebs-Henseleit pH 7.4 buffer.
# (§6) The cell insert was utilized as the diffusion chamber. The pH of the Krebs-Henseleit buffer in the apical and basolateral chambers was 6.5 and 7.4, respectively, and the initial concentration of substrate in apical side was 100 μM. […] The experiments were initiated when the cell inserts with 100 μM compounds in pH 6.5 Krebs-Henseleit buffer were transferred into a new plate with pre-equilibrated buffer in basolateral chamber. Samples from donor side at 0 min, and both donor and receiver sides at 30 min were collected for analysis.
# (§7) Lucifer Yellow was used to assess the performance of the diffusion system. […] After 60 min of incubation, 250 μL was removed from the basal chamber and assayed.
# (§8) The Papp was calculated using the following formula:
# (§9) [formula] Where V is the volume (cm^3) of the receiver solution, A is the surface area (cm^2) of the Snapwell insert, Co is the initial concentration (nM), and dC/dt is the change in concentration in the receiver chamber over time, i.e., the slope (nM/min) of the concentration in the receiver chamber vs. time. Concentrations at each sampling time point were corrected to account for the aliquots removed or transferring of donor inserts to new plates depending on the experiment.
# HCV = details: monotherapy; cited from earlier work
# Caco-2 cells = experiment: Caco2 protocol: transport through Caco-2 cell monolayers (Papp); format: in vitro ADME; details: Caco-2 cultured 7 days; apical pH 6.5, basolateral pH 7.4; 100 μM apical; 30 min
# Experimental: as §1, §2, §3, §4, §5, §6, §7, §8, §9
# [2] = Determination of pharmacokinetic parameters in rats (oral gavage, plasma LC/MS/MS); format: in vivo, rat; details: AUC(cyt) of parent cytidine nucleoside in plasma, dose equivalent to 10 mg/kg, male Hanover-Wistar rats
# Experimental: Determination of Pharmacokinetic Parameters in Rats Intact male IGS Wistar Han Rats Crl:WI(GLx/BRL/Han)IGS BR (Hanover-Wistar) rats weighing 200-250 g were used. Groups of three rats were used for each dose level of an experimental compound. Animals were allowed normal access to chow and water throughout the experiment. The test substance was formulated as an aqueous suspension containing Captex 355EP, Capmul MCM, EtOH, and propylene glycol (30:20:20:30) at a dose equivalent to 10 mg/kg of the I-5 and was administered orally by gavage. A blood sample (0.3 mL) was collected from the treated rats at, 0.25, 0.5, 1, 3, 5, and 8 h from a jugular cannula and at 24 h by cardiac puncture. Potassium oxalate/NaF were added to the samples which were stored on ice during sampling procedure. The samples were spun in a refrigerated centrifuge at […] as soon as possible and the plasma samples were stored in a −80° C. freezer until analysis. Aliquots of plasma (0.05 mL) were mixed with 0.1 mL of acetonitrile. Internal standard (0.05 mL in water) and 0.02 mL blank solvent were added. […] Sample Analysis—Prodrugs were analyzed using high-performance liquid chromatography with tandem mass-spectrometry (HPLC/MS/MS). […]
SMILES,"Papp A→B at 30 min, 100 μM ([1]; Caco-2) [×10⁻⁶ cm/s]",melting point [°C],also measured
"C[C@@]1(O)[C@H](O)[C@@H](CO)O[C@H]1n1ccc(N)nc1=O [I-4, 4-amino-1-((2R,3R,4R,5R)-3,4-dihydroxy-5-hydroxymethyl-3-methyl-tetrahydro-furan-2-yl)-1H-pyrimidin-2-one, reference compound]",0.76,,
"CCC(=O)OC[C@H]1O[C@@H](n2ccc(N)nc2=O)[C@](C)(O)[C@@H]1OC(=O)CC.Cl [I-1, Propionic Acid (2R,3R,4R,5R)-5-(4-amino-2-oxo-2H-pyrimidin-1-yl)-4-hydroxy-4-methyl-3-propionyloxy-tetrahydro-furan-2-ylmethyl ester; Hydrochloride Salt]",0.11,164.5 to 167,
"NC(=O)c1ncn([C@@H]2O[C@H](CO)[C@@H](O)[C@H]2O)n1 [ribavirin, 1-((2R,3R,4S,5R)-3,4-Dihydroxy-5-hydroxymethyl-tetrahydro-furan-2-yl)-1H-[1,2,4]triazole-3-carboxylic acid amide]",,,patients with serum amino transferase levels reduced to normal (HCV): 40%
"CC(C)C(N)C(=O)O[C@@H]1[C@@H](CO)O[C@@H](n2ccc(N)nc2=O)[C@]1(C)O (stereo partly drawn) [I-5, reference compound]",,,"Papp A→B at 30 min, 100 μM ([1]; Caco-2 cultured 7 days, apical pH 6.5, basolateral pH 7.4, 100 μM apical, 30 min, read-out: Caco2 (7 day)): 0.12 ×10⁻⁶ cm/s"
"CCCCC(=O)OC[C@H]1O[C@@H](n2ccc(N)nc2=O)[C@](C)(O)[C@@H]1OC(=O)CCCC.Cl [I-3, Pentanoic Acid (2R,3R,4R,5R)-5-(4-amino-2-oxo-2H-pyrimidin-1-yl)-4-hydroxy-4-methyl-3-pentanoyloxy-tetrahydro-furan-2-ylmethyl ester; Hydrochloride Salt]",4.21,158.2 to 159.2,
"CC(C)C(=O)OC[C@H]1O[C@@H](n2ccc(N)nc2=O)[C@](C)(O)[C@@H]1OC(=O)C(C)C.Cl [I-2, Iso-butyric Acid (2R,3R,4R,5R)-5-(4-amino-2-oxo-2H-pyrimidin-1-yl)-4-hydroxy-3-isobutyryloxy-4-methyl-tetrahydro-furan-2-ylmethyl ester; Hydrochloride Salt]",,,Caco2 (7 day) (Caco-2 cells): 1.06 cm/sec × 10^−6; Rat AUC [2]: 5600 ± 300 ng·h/mL
